# Experiments:
# hADSC = assay: Chemical reprogramming of hADSC per Example 6A, OCT4-positive hCiPSC clones; assay type: cell-based, human
# Method: In short, hADSC or hASF are seeded at 1×10^4 cells/well in a 12-well plate, or at 0.5-0.6×10^4 cells/well in a 24-well plate, and cultured overnight. The next day, the medium is replaced with Stage I induction medium (Knockout DMEM supplemented with 2% B27 supplement, 1% KSR, 1% GlutaMAX, 1% NEAA, 1% penicillin-streptomycin, […] Vc2p, 5 mM LiCl, 1 mM NAM, 20 ng/mL BMP4, 5 μM CHIR999021, 10 μM 616452, 2 μM TTNPB, 0.5 μM SAG, 2 μM EPZ5676, 0.05 μM DZNep, 1 μM ruxolitinib, 0.5 μM VTP50469, 1 μM HY-10249A (CAS No. 842148-40-7), 0.2 μM JNKIN8, and 0.2 μM SETD2-IN-1), and cultured under hypoxic conditions (5% 02) until a monolayer of epithelial-like cells appears and reaches approximately 100% confluence. hADSC cells typically require 8-10 days, and hASFs typically require 9-16 days. […]
# OCT4 immunofluorescent staining is performed on the obtained hCiPSC clones, with OCT4 positivity serving as an indicator of hCiPSC clones. The reprogramming efficiency of the method is calculated by dividing the number of OCT4-positive clones by the number of initial hADSC or hASFs plated. […]
# [1] = test system: cellular retinoic acid binding protein (CRABP); conditions: cited from earlier work
smiles,measurement,setting,value
O=C(NNS(=O)(=O)c1ccccc1F)c1cc(F)cc(-c2ccccn2)c1 [WM1119],transformation efficiency,"hADSC; 8+4+8 culture method, HATi 0.5 μM in stage I induction medium, FIG. 27A",about 2.4%
CCc1c(C#N)c(SC(C(N)=O)c2ccccc2)nc(N2CCC(N)CC2)c1C#N (stereo not drawn) [GSK3685032],transformation into pluripotent stem cells vs control,"hADSC; 6+4+8, added to Stage II induction medium (RA 5 μM, GSK3685032 0.02 μM), FIG. 29",significantly improve the transformation of LIN28A-positive monolayer epithelial-like cells into pluripotent stem cells
"CC(C)(C)c1cc(C(=O)/C=C/c2ccc(C(=O)O)cc2)cc(C(C)(C)C)c1 [Ch 55, 4-[(1E)-3-[3,5-bis(1,1-Dimethylethyl)phenyl]-3-oxo-1-propenyl]benzoic acid]",affinity for cellular retinoic acid binding protein (CRABP),[1],low affinity

# Reference: patent US20250340848A1, “METHODS FOR CHEMICAL REPROGRAMMING AND PLURIPOTENT STEM CELLS” (Peking University, priority 2022, published 2025)
